This passage reports EC50 results from patent publication US12391677B2, “Thyroid hormone receptor agonists” (INVENTISBIO CO., LTD., priority 2018, dated 2025).

By EC50 is commonly meant the midpoint of the concentration-response curve. Low values mean higher potency in that assay, high ones lower potency in that assay.

Experiment [1] has as its target ligand binding domain of thyroid hormone receptor beta (Homo sapiens (Human), UniProt P10828). In words: Thyroid hormone receptor TR-FRET binding assay (TRβ LBD). To be noted: TRβ LBD 2 nM. The procedure:
(§1) TR-FRET binding assay was used to test representative compounds herein.
(§2) The ligand binding domain of thyroid hormone receptor alpha and the ligand binding domain of thyroid hormone receptor beta with GST tag were purchased from Invitrogen. Biotin-SRC2-2 coactivator peptide was purchased from Sangon Biotech, Europium anti-GST and Streptavidin-D2 was from Cisbio.
(§3) Five microliters of 4× compound serial dilution was added in the 384-well plate, white, low volume, round-bottom assay plate. […] Centrifuge the assay plates at 1000 g for 1 min and incubate 1 hr at RT, protected from light. […] Calculate EC50 by fitting % Activity values and log of compound concentrations to nonlinear regression (dose response—variable slope) with Graphpad 5.0.
(In general: Time-resolved FRET reads energy transfer from a long-lived donor to a nearby acceptor.)

Experiment [2] concerns the target ligand binding domain of thyroid hormone receptor alpha (Homo sapiens (Human), UniProt P10827). In words: Thyroid hormone receptor TR-FRET binding assay (TRα LBD). To be noted: TRα LBD 4 nM. As to the method:
as §1, §2, §3

Experiment [3] concerns the target TRβ-GAL4 binding domain chimeric receptors (Homo sapiens (Human), UniProt P10828). In words: Thyroid hormone receptor cell assay (GAL4 luciferase reporter in HEK293-LUC cells). The experiment is classed as cell-based. The source says: TRα-LBD or TRβ-LBD, coding sequence was inserted into pBIND expression vector (Promega, E1581) to express TRβ-GAL4 binding domain chimeric receptors. This expression vector was transfected into HEK293-LUC host cells with reporter vector (pGL4.35 which carry a stably integrated GAL4 promoter driven luciferase reporter gene). Upon agonist binding to the corresponding TRa-GAL4 or TRb-GAL4 chimeric receptor, the chimeric receptor binds to the GAL4 binding sites and stimulates the reporter gene.
Seed 2.5×10^6 HEK293-LUC cells into a 60 mm dish and incubated for 16 h at 37° C. under 5% CO2 atmosphere. Mix 12 microliters of Lipo LTX reagent in 250 microliters of Opti-MEM Medium by inversion. Mix 6 ug of DNA in 250 uL of Opti-MEM medium, then add 6 uL of Lipo PLUS Reagent. Add diluted DNA to each tube of diluted Lipo LTX Reagent (1:1 ratio), and mix by Pipettor and incubate at room temperature for 10 min. The reagent mixture was added to a 60 mm dish, incubated with cells for 4-7 h at 37 degrees under 5% CO2 atmosphere.
75 nL compound was added into 384 well assay plate using ECHO550 and then add HEK293-LUC cells (transfected, 17,000 cells/well) into the plate using phenol red-free DMEM containing 5% charcoal/dextran-treated FBS and incubated for 16-20 h at […] under 5% CO2 atmosphere. Add 25 uL of Steady-Glo Luciferase Assay Reagent into each well. Shake for 5 min and then record the luminescence value on Envision 2104 plate reader.
Background: Reporter assays use an easily measured gene product as a stand-in for the process of interest.

Sequence of ligand binding domain of thyroid hormone receptor alpha (P10827 other isoform, or with tags, fused parts or gaps del 1-162, other chains not shown): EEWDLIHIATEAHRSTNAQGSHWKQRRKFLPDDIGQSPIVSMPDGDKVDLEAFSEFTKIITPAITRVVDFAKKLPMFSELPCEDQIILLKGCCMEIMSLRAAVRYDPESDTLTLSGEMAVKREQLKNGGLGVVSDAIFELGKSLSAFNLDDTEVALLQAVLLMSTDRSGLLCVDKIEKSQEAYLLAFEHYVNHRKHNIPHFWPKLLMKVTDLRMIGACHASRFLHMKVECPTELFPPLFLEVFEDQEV
Sequence of ligand binding domain of thyroid hormone receptor beta (P10828 217-461): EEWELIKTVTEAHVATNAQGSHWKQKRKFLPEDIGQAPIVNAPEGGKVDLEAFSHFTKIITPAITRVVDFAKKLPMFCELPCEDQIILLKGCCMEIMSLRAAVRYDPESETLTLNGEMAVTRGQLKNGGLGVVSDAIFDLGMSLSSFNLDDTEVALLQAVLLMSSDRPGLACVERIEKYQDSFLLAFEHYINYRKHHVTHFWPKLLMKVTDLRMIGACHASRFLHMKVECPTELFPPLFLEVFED
Sequence of TRβ-GAL4 binding domain chimeric receptors (P10828 217-461, stated change not applied): as the sequence (P10828 217-461) above

Turning to `CC(c1ccccc1)c1cc(Oc2c(Cl)cc(-n3nc(C#N)c(=O)[nH]c3=O)cc2C(F)(F)F)n[nH]c1=O` (racemic) [Compound 94], the concentration for a half-maximal effect (EC50) in experiment [1] was 0.5 µM.

The compound `CC(c1cc(Oc2c(Cl)cc(-n3nc(C#N)c(=O)[nH]c3=O)cc2C(F)(F)F)n[nH]c1=O)C1CCCCC1` (racemic) [Compound 97] came in with an EC50 in experiment [1] of 0.26 µM.

As to `Cc1nn(-c2cc(Cl)c(Oc3cc([C@@H](C)c4ccccc4)c(=O)[nH]n3)c(Cl)c2)c(=O)[nH]c1=O` (single isomer, unassigned) [Compound 71], the EC50 in experiment [2] worked out at 14.6 µM; in experiment [1], 0.3 µM; in experiment [3], 0.46 µM.

For the compound `Cc1nn(-c2cc(Cl)c(Oc3cc([C@H](C)c4ccccc4)c(=O)[nH]n3)c(Cl)c2)c(=O)[nH]c1=O` (single isomer, unassigned) [Compound 72], the results for the EC50 in experiment [2] and in experiment [1] were 90 µM and 3.47 µM, respectively.

As for `Cc1nn(-c2cc(Cl)c(Oc3cc(C(C)C4CCCCC4)c(=O)[nH]n3)c(Cl)c2)c(=O)[nH]c1=O` (single isomer, unassigned) [Compound 76], the EC50 was 43.4 µM in experiment [2] and 1.05 µM in experiment [1].

In experiment [1], `CC(c1ccccc1)c1cc(Oc2c(Cl)cc(-n3nc(C#N)c(=O)[nH]c3=O)cc2Cl)n[nH]c1=O` (single isomer, unassigned) [Compound 88] showed a concentration giving a half-maximal response (EC50) of 3.21 µM.

The compound `CC(c1ccccc1)c1cc(Oc2c(Cl)cc(-n3nc(C#N)c(=O)[nH]c3=O)cc2Cl)n[nH]c1=O` (single isomer, unassigned) [Compound 89] yielded an EC50 in experiment [1] of 0.36 µM.

On to `CC(c1cc(Oc2c(Cl)cc(-n3nc(C#N)c(=O)[nH]c3=O)cc2Cl)n[nH]c1=O)C1CCCCC1` (single isomer, unassigned) [Compound 92], for which the results for the EC50 in experiment [1] and in experiment [3] were 0.29 µM and 13.6 µM, respectively.

For the compound `CC(c1cc(Oc2c(Cl)cc(-n3nc(C#N)c(=O)[nH]c3=O)cc2Cl)n[nH]c1=O)C1CCCCC1` (single isomer, unassigned) [Compound 93], it took 1.56 µM to reach a half-maximal effect in experiment [1] (EC50).

`CC(c1ccccc1)c1cc(Oc2c(Cl)cc(-n3nc(C#N)c(=O)[nH]c3=O)cc2C(F)(F)F)n[nH]c1=O` (single isomer, unassigned) [Compound 95]: in experiment [1], the EC50 worked out at 0.24 µM.

In experiment [1], `CC(c1ccccc1)c1cc(Oc2c(Cl)cc(-n3nc(C#N)c(=O)[nH]c3=O)cc2C(F)(F)F)n[nH]c1=O` (single isomer, unassigned) [Compound 96] gave an EC50 of 0.84 µM.

In experiment [3], `CC(c1cc(Oc2c(Cl)cc(-n3nc(C#N)c(=O)[nH]c3=O)cc2C(F)(F)F)n[nH]c1=O)C1CCCCC1` (single isomer, unassigned) [Compound 98] displayed an EC50 of 5.5 µM.

In turn, `CC(c1cc(Oc2c(Cl)cc(-n3nc(C#N)c(=O)[nH]c3=O)cc2C(F)(F)F)n[nH]c1=O)C1CCCCC1` (single isomer, unassigned) [Compound 99] had an EC50 in experiment [3] of 18.5 µM.

`N#Cc1nn(-c2ccc(Oc3cc(C4CC4)c(=O)[nH]n3)c(Cl)c2)c(=O)[nH]c1=O` [Compound 6]: the EC50 in experiment [2] and in experiment [1] was over 10 µM in each case.

For `Cc1nn(-c2cc(Br)c(Oc3cc(C4CCC4)c(=O)[nH]n3)c(Br)c2)c(=O)[nH]c1=O` [Compound 13], the EC50 is 1.35 µM in experiment [2] and 0.12 µM in experiment [1].

Regarding `CC(=O)N1CCC(c2cc(Oc3c(Cl)cc(-n4nc(C#N)c(=O)[nH]c4=O)cc3Cl)n[nH]c2=O)CC1` [Compound 19], the 50% effective concentration (EC50) in experiment [2] and in experiment [1] was over 90 µM each time.

With `N#Cc1nn(-c2cc(Cl)c(Oc3cc(-c4ccccc4)c(=O)[nH]n3)c(Cl)c2)c(=O)[nH]c1=O` [Compound 24], the EC50 in experiment [2] and in experiment [1] was over 10 µM in each case.

On to `N#Cc1nn(-c2cc(Cl)c(Oc3cc(CCc4ccccc4)c(=O)[nH]n3)c(Cl)c2)c(=O)[nH]c1=O` [Compound 26], for which the EC50 in experiment [2] and in experiment [1] was over 10 µM throughout.

Consider `N#Cc1nn(-c2cc(Cl)c(Oc3cc(Cc4cccc(O)c4)c(=O)[nH]n3)c(Cl)c2)c(=O)[nH]c1=O` [Compound 34], for which the concentration for a half-maximal effect (EC50) in experiment [2] and in experiment [1] was over 90 µM each time.

Turning to `CC(C)c1cc(Oc2c(Cl)cc(-n3nc(C4CC4)c(=O)[nH]c3=O)cc2Cl)n[nH]c1=O` [Compound 36], the EC50 in experiment [2] is over 90 µM; in experiment [1], 11.7 µM.

Regarding `CC(C)c1cc(Oc2c(Cl)cc(-n3nc(C(C)C)c(=O)[nH]c3=O)cc2Cl)n[nH]c1=O` [Compound 38], the EC50 in experiment [2] and in experiment [1] was over 90 µM throughout.

In the case of `Cc1cc(-n2nc(C#N)c(=O)[nH]c2=O)c(F)c(C)c1Oc1cc(C(C)C)c(=O)[nH]n1` [Compound 45], the EC50 is over 10 µM in experiment [2] and 4.16 µM in experiment [1].

As for `Cc1nn(-c2cc(Cl)c(Oc3cc(Cc4ccc(Cl)cc4)c(=O)[nH]n3)c(Cl)c2)c(=O)[nH]c1=O` [Compound 49], the EC50 in experiment [2] was determined as 3.2 µM; in experiment [1], 0.23 µM.

For `N#Cc1nn(-c2cc(Cl)c(Oc3cc(CC4CCC(O)CC4)c(=O)[nH]n3)c(Cl)c2)c(=O)[nH]c1=O` (centres unmarked) [Compound 50], the EC50 in experiment [2] was over 90 µM; in experiment [1], 8.8 µM.

In the case of `N#Cc1nn(-c2cc(Cl)c(Oc3cc(CC4CCC(O)C4)c(=O)[nH]n3)c(Cl)c2)c(=O)[nH]c1=O` (centres unmarked) [Compound 51], the EC50 in experiment [2] and in experiment [1] was over 90 µM each time.

In the case of `Cc1nn(-c2cc(Cl)c(Oc3cc(Cc4ccc(O)cc4)c(=O)[nH]n3)c(Cl)c2)c(=O)[nH]c1=O` [Compound 53], the EC50 came out at 1.37 µM in experiment [2] and 0.01 µM in experiment [1].

For the compound `Cc1nn(-c2cc(Cl)c(Oc3cc(CC4CCC(O)CC4)c(=O)[nH]n3)c(Cl)c2)c(=O)[nH]c1=O` (centres unmarked) [Compound 55], the values for the EC50 in experiment [2] and in experiment [1] were 8.57 µM and 1.07 µM, respectively.

For the compound `N#Cc1nn(-c2cc(Cl)c(Oc3cc(Cc4ccccc4O)c(=O)[nH]n3)c(Cl)c2)c(=O)[nH]c1=O` [Compound 57], the figures for the EC50 in experiment [2] and in experiment [1] were 90 µM and 1.63 µM, respectively.

In the case of `Cc1nn(-c2cc(Cl)c(Oc3cc(CC4CCCC4)c(=O)[nH]n3)c(Cl)c2)c(=O)[nH]c1=O` [Compound 59], the EC50 is 1.17 µM in experiment [2] and 0.19 µM in experiment [1].

For the compound `Cc1nn(-c2cc(Cl)c(Oc3cc(C(C)C4CCCCC4)c(=O)[nH]n3)c(Cl)c2)c(=O)[nH]c1=O` (centres unmarked) [Compound 61], the EC50 in experiment [2] was found to be 15.6 µM; in experiment [1], 0.15 µM.

Take `N#Cc1nn(-c2cc(Cl)c(Oc3cc(Cc4ccccc4)c(=O)[nH]n3)c(C(F)(F)F)c2)c(=O)[nH]c1=O` [Compound 64]: the EC50 is 90 µM in experiment [2] and 0.24 µM in experiment [1].

On to `Cc1nn(-c2cc(Cl)c(Oc3cc(Cc4cccc(F)c4)c(=O)[nH]n3)c(Cl)c2)c(=O)[nH]c1=O` [Compound 68], for which the EC50 in experiment [2] is 7.82 µM; in experiment [1], 0.78 µM.

`COc1ccccc1Cc1cc(Oc2c(Cl)cc(-n3nc(C)c(=O)[nH]c3=O)cc2Cl)n[nH]c1=O` [Compound 69]: the EC50 in experiment [2] is 90 µM; in experiment [1], 2.62 µM.

As to `CC(C)c1cc(Oc2c(Cl)cc(CCP(=O)(O)O)cc2Cl)n[nH]c1=O` [Compound 70], the EC50 in experiment [2] is 90 µM; in experiment [1], 42.4 µM.

Regarding `N#Cc1nn(-c2cc(Cl)c(Oc3cc(C4CCN(Cc5ccccc5)CC4)c(=O)[nH]n3)c(Cl)c2)c(=O)[nH]c1=O` [Compound 77], the EC50 in experiment [2] and in experiment [1] was 90 µM each time.

In the case of `Cc1nn(-c2cc(Br)c(Oc3cc(C(=O)c4ccccc4)c(=O)[nH]n3)c(Br)c2)c(=O)[nH]c1=O` [Compound 78], the figures for the EC50 in experiment [2] and in experiment [1] were 26.9 µM and 0.81 µM, respectively.

With `N#Cc1nn(-c2cc(Cl)c(Sc3cc(Cc4ccccc4)c(=O)[nH]n3)c(Cl)c2)c(=O)[nH]c1=O` [Compound 80], the EC50 came to 90 µM in experiment [2] and 2.33 µM in experiment [1].

`CC(C)c1c[nH]c2ncc(Oc3c(Cl)cc(-n4nc(C#N)c(=O)[nH]c4=O)cc3Cl)cc12` [Compound 84] had an EC50 in experiment [1] of 0.66 µM.

In experiment [1], `Cc1cc(OCP(=O)(O)O)cc(C)c1Cc1cc(C(C)C)c(=O)[nH]n1` [Compound 85] returned an EC50 of over 90 µM.

Compound `CC(O)(CO)c1ccc(Cc2cc(Oc3c(Cl)cc(-n4nc(C#N)c(=O)[nH]c4=O)cc3Cl)n[nH]c2=O)cc1` (centres unmarked) [Compound 86] came in with an EC50 in experiment [1] of over 90 µM.

In experiment [1], `N#Cc1nn(-c2cc(Cl)c(Oc3ccc4[nH]cc(C(N)=O)c4c3)c(Cl)c2)c(=O)[nH]c1=O` [Compound 87] displayed an EC50 of 1.21 µM.

For `CC(C)c1n[nH]c2ccc(Oc3c(Cl)cc(-n4nc(C#N)c(=O)[nH]c4=O)cc3Cl)cc12` [Compound 90], the EC50 in experiment [1] turned out to be 0.18 µM; in experiment [3], 2.76 µM.

Regarding `CC(C)c1nn(-c2c(Cl)cc(-n3nc(C#N)c(=O)[nH]c3=O)cc2Cl)c2ccc(O)cc12` [Compound 91], the EC50 in experiment [1] is 0.43 µM; in experiment [3] it was 4.35 µM.
